This note sets out measurements from patent US9233143B2, “Medicinal agent for preventing exacerbation of malignant tumor, comprising combination of natriuretic peptide receptor GC-A and GC-B agonists” (National Cerebral and Cardiovascular Center, priority 2011, dated 2016).

One assay has as its system CAFs. The assay can be described thus: Production of cancer exacerbation factors by CAFs under TGF-β1 stimulus (quantitative RT-PCR). Format: cell-based, human. Particulars: test substance 1 μM, TGF-β1 0.125-2.0 ng/mL, 24 hours, mRNA level, FIG. 5. Here is the method:
Using a 6-well dish, the CAFs were cultured at 5×10^4 cells/well, and the culture medium was replaced with DMEM culture medium containing 1% FBS the next day. After 24 hours of culture, the cells were used in the following experiment.
A CNP group (a hCNP-22 solution was added (final concentration: 1 μM)) and a control group (the same amount of physiological saline was added) were prepared, and after 2 hours from the addition (of the hCNP-22 solution or the physiological saline) to the CAFs, TGF-β1 was added so that the final concentration would be 0.125, 0.25, 0.5, 1.0, and 2.0 ng/mL. After 24 hours had passed, total RNA was recovered using TRIZOL total RNA isolation reagent, cDNA was synthesized using reverse transcriptase, and the mRNA levels of VEGF-A, TGF-β1, TNF-α, and IL-6 were measured by quantitative RT-PCR.

A further assay relates to A549 cells and CAFs. The assay can be described thus: Mouse models having transplanted cancer cells and CAFs, administration started after tumor tissue was established (Example 6). The class given is in vivo. Particulars: hANP alone 0.5 μg/kg/min, started 2 weeks after transplantation, 4 weeks, FIG. 10. Here is the method:
In this Example and Example 6, 5-week-old male immunodeficient mice (KSN mice, Japan SLC, Inc.) were used. The osmotic pumps used were MODEL2004 (for 28-day administration) made by ALZET (Cupertino, Calif.). A mixed suspension of the A549 cells and the CAFs was prepared using DMEM free from FBS so as to contain the A549 cells at 1×10^6 cells/100 μL and the CAFs at 0.5×10^6 cells/100 μL. The mixed suspension in an amount of 100 μL per mouse was subcutaneously injected in the back of the immunodeficient mice. […] After 2 weeks of observation from the injection of the cell suspension, the mice to which the mixed suspension had been injected were randomly divided into 4 groups (control group, ANP group, CNP group, and ANP+CNP group), and an osmotic pump appropriately adjusted for each group as shown below was subcutaneously implanted to start administration. • Control group and A549 group: physiological saline was administered • ANP group: hANP was administered at 0.5 μg/kg/min • CNP group: hCNP-22 was administered at 2.5 μg/kg/min • ANP+CNP group: hANP was administered at 0.5 μg/kg/min and hCNP-22 was administered at 2.5 μg/kg/min Observation was further continued for 4 weeks after the start of administration, the tumor size at the cell injection site was measured weekly, and tumor volume was calculated in the same way as in Example 5 (FIG. 10).

On to `CC[C@H](C)[C@@H]1NC(=O)[C@H](CCCNC(=N)N)NC(=O)[C@H](CC(=O)O)NC(=O)[C@H](CCSC)NC(=O)[C@H](CCCNC(=N)N)NC(=O)CNC(=O)CNC(=O)[C@H](Cc2ccccc2)NC(=O)[C@@H](NC(=O)[C@H](CO)NC(=O)[C@H](CO)NC(=O)[C@H](CCCNC(=N)N)NC(=O)[C@H](CCCNC(=N)N)NC(=O)[C@H](CC(C)C)NC(=O)[C@@H](N)CO)CSSC[C@@H](C(=O)N[C@@H](CC(N)=O)C(=O)N[C@@H](CO)C(=O)N[C@@H](Cc2ccccc2)C(=O)N[C@@H](CCCNC(=N)N)C(=O)N[C@@H](Cc2ccc(O)cc2)C(=O)O)NC(=O)CNC(=O)[C@H](CC(C)C)NC(=O)CNC(=O)[C@H](CO)NC(=O)[C@H](CCC(N)=O)NC(=O)[C@H](C)NC(=O)CNC1=O` [hANP], for which the “gene expression of the growth factors (VEGF-A, TGF-β1) and the inflammatory cytokines (TNF-α, IL-6) increased by the TGF-β1 stimulus in CAFs” value in the assay with CAFs is recorded as “did not show any effect on CAFs”. Moreover, the “tumor growth as compared with the control group” value with A549 cells and CAFs is on record as “showed an effect of tumor growth suppression”.
